Laboratory results taken from US9078446B2, “Use of N-(tetrazol-4-yl)- or N-(triazol-3-yl)arylcarboxamides or their salts for controlling unwanted plants in areas of transgenic crop plants being tolerant to HPPD inhibitor herbicides” (BAYER INTELLECTUAL PROPERTY GMBH, priority 2011, dated 2015).

Tests used:
Type in all cases: in vivo
[1] = tested on: cotton plants expressing FMP 27 and FMP 37; assay: Tolerance to HPPD inhibitors of cotton plants expressing tolerant HPPD enzymes; settings: T1 cotton plants; one week after application
Description: (§1) Genes coding for the selected HPPD were obtained from a member of the group of organisms consisting of Blepharisma japonicum and Kordia algicida and cloned into an appropriate binary vector allowing the integration of DNA into the cotton genome, under the control of the CaMV35S promoter. For the respective cloning procedures, see WO2011076882 (PCT/EP2010/070567), Example 11; for Blepharisma japonicum (FMP37) and WO2011076889 (PCT/EP2010/070575), Example 11 for Kordia algicida (FMP27).
Between the sequence corresponding to the promoter and the sequence coding for the HPPD a DNA sequence coding for a transit peptide to the chloroplast was inserted, in order to add at the N-terminal extremity of the protein a target signal to allow the localization of the HPPD protein into the plant chloroplast. Cotton transformation was achieved as described in Example 12 of WO2011076882 (PCT/EP2010/070567) for Blepharisma japonicum (FMP37) and WO2011076889 (PCT/EP2010/070575) for Kordia algicida (FMP27). Seeds from T0 events showing tolerance to tembotrione were harvested.
T1 Cotton seeds were transferred to single pots and grown under standard cultivation conditions, see WO2011076882 (PCT/EP2010/070567) for Blepharisma japonicum (FMP37) and WO2011076889 (PCT/EP2010/070575) for Kordia algicida (FMP27).
At least 4 weeks later, plants will be sprayed with several N-(tetrazol-4-yl)- or N-(triazol-3-yl)arylcarboxamides as defined above.

[2] = tested on: soybean plants expressing Pseudomonas fluorescens G336W mutant, FMP 27 and FMP 37; assay: Tolerance to HPPD inhibitors of soybean plants expressing tolerant HPPD enzymes; settings: T1 soybean plants; one week after application
Description: as §1, with “the soybean” for “the cotton”, “Example 9;” for “Example 11;”, “Example 9” for “Example 11”
Between the sequence corresponding to the promoter and the sequence coding for the HPPD a DNA sequence coding for a transit peptide to the chloroplast was inserted, in order to add at the N-terminal extremity of the protein a target signal to allow the localization of the HPPD protein into the plant chloroplast. By using the vectors “pFCO112” (Blepharisma japonicum, WO2011076882), pFCO116 (Korida algicida, WO2011076889), and pFCO117” (see Example B2, above), soybean transformation was achieved as described in Example 10 of WO2011076882 (PCT/EP2010/070567) for Blepharisma japonicum (FMP37) and WO2011076889 (PCT/EP2010/070575) for Kordia algicida (FMP27). Seeds from TO events showing tolerance to tembotrione were harvested.
T1 Soybean seeds were transferred to single pots and grown under standard cultivation conditions, see WO2011076882.
Two weeks later, plants will be sprayed with several N-(tetrazol-4-yl)- or N-(triazol-3-yl)arylcarboxamides as defined above.

[3] = tested on: transgenic tobacco plants expressing Avena HPPD (AvHPPD); assay: Symptoms due to herbicide application on transgenic tobacco plants (damage classes 0-3); settings: AvHPPD line 659, one week after application
Description: (§2) Genes coding for the selected HPPD were obtained from a member of the group of organisms consisting of Avena sativa, Pseudomonas fluorescens mutant G336W, Blepharisma japonicum and Kordia algicida and cloned into the binary vector pBin19 allowing the integration of DNA into the tobacco genome, under the control of the CaMV35S promoter. For the cloning procedures, see A2 above for Avena sativa, see B2 above for Pseudomonas fluorescens, mutant G336W, see PCT/EP2010/070567 (published as WO 2011/076882, Example 5; for Blepharisma japonicum (FMP37) and see PCT/EP2010/070575, Example 5 for Kordia algicida (FMP27). Between the sequence corresponding to the promoter and the sequence coding for the HPPD a DNA sequence coding for a transit peptide to the chloroplast was inserted, in order to add at the N-terminal extremity of the protein a target signal to allow the localization of the HPPD protein into the plant chloroplast.
(§3) Seeds harvested from TO transformants will be put on standard soil for germination. Three weeks later plantlets (T1) will be transferred to single pots and grown under standard cultivation conditions (PCT/EP2010/070575, published as WO 2011/076889). Two weeks later, plants were sprayed with several N-(tetrazol-4-yl)- or N-(triazol-3-yl)arylcarboxamides as defined above.
(§4) Tables F1 to F5: Evaluation of the Symptoms Observed Due to the Application of the Herbicides on Transgenic Tobacco Plants, Expressing the Mutant Pseudomonas fluorescens HPPD G336W, the Avena HPPD (AvHPPD), the HPPD from Kordia algicida FMP27 or the HPPD from Blepharisma japonicum (FMP37), Compared to Non-Tranformed Tobacco Plants (“Wt”).
(§5) The herbicides (with “g Al/ha” meaning “g active ingredient/ha”) were applied on 8 to 10 plants originated from 1 to 3 independent transgenic events per transgene.
(§6) The symptoms were evaluated and classified as following: • 3=Very strong damage • 2=Strong damage • 1=Light and transient damage • 0=No damage

[4] = tested on: transgenic tobacco plants expressing HPPD from Kordia algicida FMP27; assay: as above; settings: one week after application
Description: as §2, §3, §4, §5, §6

[5] = tested on: transgenic tobacco plants expressing HPPD from Blepharisma japonicum (FMP37); assay: as above; settings: one week after application
Description: as §2, §3, §4, §5, §6

[6] = tested on: transgenic tobacco plants expressing mutant Pseudomonas fluorescens HPPD G336W (PfHPPD-G336W); assay: as above; settings: PfHPPD-G336W line 646, one week after application
Description: as §2, §3, §4, §5, §6

[7] = tested on: non-transformed tobacco plants (Wt); assay: Symptoms due to herbicide application on tobacco plants (damage classes 0-3); settings: one week after application
Description: as §3, §4, §5, §6

[8] = tested on: transgenic tobacco plants expressing tolerant HPPD enzymes; assay: Tolerance of tobacco plants expressing tolerant HPPD enzymes (all transgenes); settings: for tolerance of the transgenic tobacco plants (symptoms due to application of the herbicide): T1 plants sprayed, evaluated one week after application; for sensitivity of transgenic tobacco plants compared to wild type (wt) plants: all tested independent lines, agronomically relevant dose
Description: as §2, §3, §4, §5, §6

[9] = 50 g AI/ha, WP20 + oilseed rape methyl ester + ammonium sulfate

Cn1nnnc1NC(=O)c1ccc(C(F)(F)F)cc1S(C)(=O)=O [Compound 4-25]
tolerance of transgenic plants compared to the wild-type cotton plants [1]: superior tolerance
tolerance of transgenic plants compared to the wild-type soybean plants [2]: superior tolerance
number of plants with Damage 0 (No damage) ([3]; 50 g Al/ha): 6
number of plants with Damage 1 (Light and transient damage) ([3]; 50 g Al/ha): 1
number of plants with Damage 2 (Strong damage) ([3]; 50 g Al/ha): 0
number of plants with Damage 3 (Very strong damage) ([3]; 50 g Al/ha): 3
number of plants with Damage 0 (No damage) ([4]; FMP27 line 733, 50 g Al/ha): 9
number of plants with Damage 1 (Light and transient damage) ([4]; FMP27 line 733, 50 g Al/ha): 1
number of plants with Damage 2 (Strong damage) ([4]; FMP27 line 733, 50 g Al/ha): 0
number of plants with Damage 3 (Very strong damage) ([4]; FMP27 line 733, 50 g Al/ha): 0
number of plants with Damage 0 (No damage) ([4]; FMP27 line 734, 50 g Al/ha): 6
number of plants with Damage 1 (Light and transient damage) ([4]; FMP27 line 734, 50 g Al/ha): 3
number of plants with Damage 2 (Strong damage) ([4]; FMP27 line 734, 50 g Al/ha): 0
number of plants with Damage 3 (Very strong damage) ([4]; FMP27 line 734, 50 g Al/ha): 1
number of plants with Damage 0 (No damage) ([4]; FMP27 line 735, 50 g Al/ha): 5
number of plants with Damage 1 (Light and transient damage) ([4]; FMP27 line 735, 50 g Al/ha): 3
number of plants with Damage 2 (Strong damage) ([4]; FMP27 line 735, 50 g Al/ha): 0
number of plants with Damage 3 (Very strong damage) ([4]; FMP27 line 735, 50 g Al/ha): 0
number of plants with Damage 0 (No damage) ([5]; FMP37 line 749, 50 g Al/ha): 8
number of plants with Damage 1 (Light and transient damage) ([5]; FMP37 line 749, 50 g Al/ha): 0
number of plants with Damage 2 (Strong damage) ([5]; FMP37 line 749, 50 g Al/ha): 0
number of plants with Damage 3 (Very strong damage) ([5]; FMP37 line 749, 50 g Al/ha): 2
number of plants with Damage 0 (No damage) ([5]; FMP37 line 754, 50 g Al/ha): 3
number of plants with Damage 1 (Light and transient damage) ([5]; FMP37 line 754, 50 g Al/ha): 5
number of plants with Damage 2 (Strong damage) ([5]; FMP37 line 754, 50 g Al/ha): 1
number of plants with Damage 3 (Very strong damage) ([5]; FMP37 line 754, 50 g Al/ha): 1
number of plants with Damage 0 (No damage) ([5]; FMP37 line 795, 50 g Al/ha): 7
number of plants with Damage 1 (Light and transient damage) ([5]; FMP37 line 795, 50 g Al/ha): 0
number of plants with Damage 2 (Strong damage) ([5]; FMP37 line 795, 50 g Al/ha): 1
number of plants with Damage 3 (Very strong damage) ([5]; FMP37 line 795, 50 g Al/ha): 2
number of plants with Damage 0 (No damage) ([6]; 50 g Al/ha): 10
number of plants with Damage 1 (Light and transient damage) ([6]; 50 g Al/ha): 0
number of plants with Damage 2 (Strong damage) ([6]; 50 g Al/ha): 0
number of plants with Damage 3 (Very strong damage) ([6]; 50 g Al/ha): 0
number of plants with Damage 0 (No damage) ([7]; 50 g Al/ha): 0
number of plants with Damage 1 (Light and transient damage) ([7]; 50 g Al/ha): 0
number of plants with Damage 2 (Strong damage) ([7]; 50 g Al/ha): 0
number of plants with Damage 3 (Very strong damage) ([7]; 50 g Al/ha): 10
tolerance of the transgenic tobacco plants (symptoms due to application of the herbicide) [8]: good tolerance
sensitivity of transgenic tobacco plants compared to wild type (wt) plants [8]: less sensitive

COCc1c(S(C)(=O)=O)ccc(C(=O)Nc2nnnn2C)c1Cl [Compound 4-253]
tolerance of transgenic plants compared to the wild-type cotton plants [1]: superior tolerance
tolerance of transgenic plants compared to the wild-type soybean plants [2]: superior tolerance
number of plants with Damage 0 (No damage) ([3]; 50 g AI/ha): 3
number of plants with Damage 1 (Light and transient damage) ([3]; 50 g AI/ha): 0
number of plants with Damage 2 (Strong damage) ([3]; 50 g AI/ha): 0
number of plants with Damage 3 (Very strong damage) ([3]; 50 g AI/ha): 7
number of plants with Damage 0 (No damage) ([4]; 50 g AI/ha, FMP27 line 733): 4
number of plants with Damage 1 (Light and transient damage) ([4]; 50 g AI/ha, FMP27 line 733): 4
number of plants with Damage 2 (Strong damage) ([4]; 50 g AI/ha, FMP27 line 733): 2
number of plants with Damage 3 (Very strong damage) ([4]; 50 g AI/ha, FMP27 line 733): 0
number of plants with Damage 0 (No damage) ([4]; 50 g AI/ha, FMP27 line 734): 6
number of plants with Damage 1 (Light and transient damage) ([4]; 50 g AI/ha, FMP27 line 734): 1
number of plants with Damage 2 (Strong damage) ([4]; 50 g AI/ha, FMP27 line 734): 2
number of plants with Damage 3 (Very strong damage) ([4]; 50 g AI/ha, FMP27 line 734): 1
number of plants with Damage 0 (No damage) ([4]; 50 g AI/ha, FMP27 line 735): 2
number of plants with Damage 1 (Light and transient damage) ([4]; 50 g AI/ha, FMP27 line 735): 5
number of plants with Damage 2 (Strong damage) ([4]; 50 g AI/ha, FMP27 line 735): 0
number of plants with Damage 3 (Very strong damage) ([4]; 50 g AI/ha, FMP27 line 735): 3
number of plants with Damage 0 (No damage) ([5]; 50 g AI/ha, FMP37 line 749): 7
number of plants with Damage 1 (Light and transient damage) ([5]; 50 g AI/ha, FMP37 line 749): 2
number of plants with Damage 2 (Strong damage) ([5]; 50 g AI/ha, FMP37 line 749): 0
number of plants with Damage 3 (Very strong damage) ([5]; 50 g AI/ha, FMP37 line 749): 1
number of plants with Damage 0 (No damage) ([5]; 50 g AI/ha, FMP37 line 754): 6
number of plants with Damage 1 (Light and transient damage) ([5]; 50 g AI/ha, FMP37 line 754): 2
number of plants with Damage 2 (Strong damage) ([5]; 50 g AI/ha, FMP37 line 754): 1
number of plants with Damage 3 (Very strong damage) ([5]; 50 g AI/ha, FMP37 line 754): 1
number of plants with Damage 0 (No damage) ([5]; 50 g AI/ha, FMP37 line 795): 3
number of plants with Damage 1 (Light and transient damage) ([5]; 50 g AI/ha, FMP37 line 795): 4
number of plants with Damage 2 (Strong damage) ([5]; 50 g AI/ha, FMP37 line 795): 0
number of plants with Damage 3 (Very strong damage) ([5]; 50 g AI/ha, FMP37 line 795): 3
number of plants with Damage 0 (No damage) ([6]; 50 g AI/ha): 9
number of plants with Damage 1 (Light and transient damage) ([6]; 50 g AI/ha): 0
number of plants with Damage 2 (Strong damage) ([6]; 50 g AI/ha): 0
number of plants with Damage 3 (Very strong damage) ([6]; 50 g AI/ha): 1
number of plants with Damage 0 (No damage) [7, 9]: 0
number of plants with Damage 1 (Light and transient damage) [7, 9]: 0
number of plants with Damage 2 (Strong damage) [7, 9]: 0
number of plants with Damage 3 (Very strong damage) [7, 9]: 10
tolerance of the transgenic tobacco plants (symptoms due to application of the herbicide) [8]: good tolerance
sensitivity of transgenic tobacco plants compared to wild type (wt) plants [8]: less sensitive
